Results: US10155743B2, “Glutarimide derivatives, use thereof, pharmaceutical composition based thereon and methods for producing glutarimide derivatives” (OBSCHESTVO S OGRANICHENNOI OTVETSTVENNOSTIYU …, priority 2013, dated 2018)
Like-named read-outs stand apart in the source and are kept apart here.

Experiments:
[1] = tested on: mucous membrane of nasal passages, formalin-induced acute rhinosinusitis; assay: Acute rhinosinusitis rat model (induced by intranasal 7.5% formalin solution); type: in vivo, Wistar rats; settings: rats; for Macroscopic changes in the mucous membrane of nasal passages: Muculent or mucopurulent catarrh (number of animals) / Macroscopic changes in the mucous membrane of nasal passages: Without changes (number of animals): count out of n of the group; for The number of caliciform cells within 1 mm of the mucous membrane of the nasal septum: M ± m
Experimental: Morphological studies of histologic preparations were conducted with a Leica DMLS light-optical microscope (Leica Microsystems, Germany). Micro-morphometric assessment was performed by using an ocular micrometer on a Leica DMLB microscope.
Acute rhinosinusitis was induced by intranasal administration of 20 μl of 7.5% formalin solution (aqueous solution comprising 40% formaldehyde, 8% methyl alcohol, and 52% water) to each nasal passage of rats.
Administration of formalin to rat nasal passages leads to the dissemination of inflammation to adjacent tissues, resulting in a clinical pattern similar to the symptoms of rhinosinusitis in a human.
After an acclimatization period, the following groups were formed: • intact animals administered intragastrically a saline solution in an amount of 0.2 ml, the induction of acute rhinosinusitis was not performed; • a control group consisted of the animals administered intragastrically a saline solution in an amount of 0.2 ml for 7 days after induction of acute rhinosinusitis; • animals administered intramuscularly dexamethasone at a dose of 0.33 mg/kg for 7 days after induction of acute rhinosinusitis; and • animals administered the tested compounds at a dose of 27 mg/kg for 7 days after induction of acute rhinosinusitis.
Clinical observation of each animal was performed every day at least twice daily.
In the experiment with Wistar rats, the induction of acute rhinosinusitis by administration of a 7.5% formalin solution to nasal passages caused in the control group of animals pronounced pathological changes characterizing the development of an acute inflammation process in the nasal mucous. The caused pathology was characterized by congestion, hyperplasia, focal necrosis of the nasal meatus mucous membrane, an increased number of caliciform cells, pronounced infiltration by mononuclear cells and leucocytes, and mucus hyperproduction by submucosal glands.
The mucous and submucous membranes of both nasal passages (respiratory and olfactory regions) of the experimental animals were subjected to a morphological analysis to evaluate a specific activity of the compounds.
For microscopic examination, the sections were stained with hematoxylin and eosin. Detection of acid mukopolysaccharides, the production of which is increased in an inflammation, was performed by histochemical staining of the preparation with Alcian Blue (pH 2.5). The comparison and histological evaluation of changes were performed versus the group of intact rats.
After slaughter, the gross appearance of inflammation in the nasal passages was studied in each animal. Histological, hystochemical and morphological studies of rats were intended to evaluate the following characteristics of nasal passages: congestion of the mucous membrane; hyperplasia and necrosis of nasal epithelium, the number of caliciform cells within 1 mm of the mucous membrane of the nasal septum, and the character of inflammation.
In this study, the efficiency of the mucociliary system was evaluated by the number of caliciform cells and, as a consequence, microscopic changes in the mucous membrane of the nasal passages.

[2] = tested on: Coxsackie A2-virus (strain HCXV A2); assay: Antiviral activity against Coxsackie virus in vivo (mortality of infected mice); set-up: species or system white mice; settings: for inhibition in vivo at 30 mg/kg / mortality at 30 mg/kg: Mus musculus, po; for inhibition in vivo at 30 mg/kg: 168 h, read-out: Protective index (%); for mortality at 30 mg/kg: 360 h, read-out: Total mortality rate, %; for Average expectancy life (days), Vs. control: difference to virus control
[3] = tested on: influenza virus strain A/California/07/09 (H1N1) pdm09; assay: animal or person; type: in vivo, white outbred female mice; settings: unidentified influenza virus, H1N1, in Mus musculus, po, 336 h, read-out: Mortality rate, %
[4] = tested on: hRV strain (GKV reg. No. 2730); assay: Antiviral activity against rhinovirus in mice (body weight, lung weight, infectious titer in lungs); type: in vivo; settings: Ribavirin 40 mg/kg
[5] = tested compounds 27 mg/kg for 7 days
[6] = mice, 10LD50 HCXV A2, 30 mg/kg orally once daily for 7 days
[7] = mice, 10LD50 HCXV A2 i.m., 30 mg/kg orally once daily for 7 days from 24 h after infection, 15 days monitoring
[8] = tested compounds 27 mg/kg for 7 days after induction
[9] = dexamethasone 0.33 mg/kg intramuscularly for 7 days

SMILES	Macroscopic changes in the mucous membrane of nasal passages: Muculent or mucopurulent catarrh (number of animals) [1, 5]	Macroscopic changes in the mucous membrane of nasal passages: Without changes (number of animals) [1, 5]	inhibition in vivo at 30 mg/kg [2, 6] [%]	mortality at 30 mg/kg [2, 7] [%]	Average expectancy life (days), Relative [2, 6] [days]	Average expectancy life (days), Vs. control [2, 6]	further results
CC1CC(=O)N(CCc2cnc[nH]2)C(=O)C1 [Compound 2]	3	5	40	42.9	22.4	+9.5 days	
O=C1CCCC(=O)N1CCc1nc2ccccc2s1 [Compound 7, 1-[2-(1H-benzothiazol-2-yl)ethyl]piperidine-2-dione]	13	5					
O=C1CCCC(=O)N1CCc1ncc[nH]1 [Compound 8]	3	3					The number of caliciform cells within 1 mm of the mucous membrane of the nasal septum [1, 8]: 34.5 ± 0.8
O=C1CCCC(=O)N1CCc1ccsc1 [Compound 12]			45	40	24.9	+14.2 days	mortality at 30 mg/kg [3]: 60%
O=C1CCCC(=O)N1CCc1ccccn1 [Compound 13]			36	46.7	19.0	+8.3 days	
O=C1CCCC(=O)N1CCN1CCCCC1 [Compound 14]					21.4	+10.4 days	inhibition in vivo at 30 mg/kg [2]: 36%; mortality at 30 mg/kg [2]: 50%
COC(=O)C(Cc1c[nH]c2ccccc12)N1C(=O)CCCC1=O (stereo not shown) [Compound 21]	5	3					
O=C1CCCC(=O)N1CCCn1ccnc1 [Compound 24]							mortality at 30 mg/kg [3]: 55%
CCOC(=O)C(Cc1c[nH]c2ccccc12)N1C(=O)CCCC1=O (stereo not shown) [Compound 27]	4	4					
O=C1CC(O)CC(=O)N1CCc1cnc[nH]1 [Compound 28]	4	4					
O=C1CCC(O)C(=O)N1CCc1cnc[nH]1 (stereo not shown) [Compound 29]			50	35.7	26.7	+13.7 days	
CC(Cc1cnc[nH]1)N1C(=O)CCCC1=O (stereo not shown) [Compound 32]	5	3	33	42.9	22.2	+10.0 days	
O=C1CCCC(=O)N1CCCc1c[nH]cn1 [Compound 33]	5	3					
O=C(O)C(Cc1ccoc1)N1C(=O)CCCC1=O (stereo not shown) [Compound 44]	4	4	55	28.6	32.3	+20.1 days	
CC1CCC(=O)N(CCc2c[nH]cn2)C1=O (stereo not shown) [Compound 56]	3	5					
NC1CC(=O)N(CCc2c[nH]cn2)C(=O)C1 [Compound 65]	4	4					
NC1CCC(=O)N(CCc2cnc[nH]2)C1=O (stereo not shown) [Compound 67]			50	35.7	27.0	+16.2 days	
CC1CCC(=O)N(C(Cc2cnc[nH]2)C(=O)O)C1=O (stereo not shown) [Compound 70]	4	4					
CC1CC(=O)N(C(Cc2cnc[nH]2)C(=O)O)C(=O)C1 (stereo not shown) [Compound 71]			44	35.7	28.6	+16.4 days	
NC1CCC(=O)N(C(Cc2c[nH]cn2)C(=O)O)C1=O (stereo not shown) [Compound 75]	5	3	50	35.7	27.3	+14.3 days	
O=C(O)C(Cc1cnc[nH]1)N1C(=O)CCC(O)C1=O (stereo not shown) [Compound 76]	6	2					
O=C(O)C(Cc1ccccn1)N1C(=O)CCCC1=O (stereo not shown) [Compound 83]							mortality at 30 mg/kg [3]: 45%
O=C1CCCC(=O)N1CCC1CNCCO1 (stereo not shown) [Compound 89]			27	53.3	17.7	+7.0 days	
O=C1CCCC(=O)N1CCC1COCCN1 (stereo not shown) [Compound 90]			50	35.7	25.9	+15.1 days	
O=C1CCCC(=O)N1CCc1nc2ccccc2[nH]1 [Compound 124]	8	4					The number of caliciform cells within 1 mm of the mucous membrane of the nasal septum [1, 8]: 37.6 ± 1.4
C[C@@H]1C[C@H]2[C@@H]3CCC4=CC(=O)C=C[C@]4(C)[C@@]3(F)[C@@H](O)C[C@]2(C)[C@@]1(O)C(=O)CO [Dexamethasone, dexamethasone, reference compound]							The number of caliciform cells within 1 mm of the mucous membrane of the nasal septum ([1]; dexamethasone 0.33 mg/kg intramuscularly for 7 days after induction): 34.8 ± 2.1; Macroscopic changes in the mucous membrane of nasal passages: Muculent or mucopurulent catarrh (number of animals) [1, 9]: 3; Macroscopic changes in the mucous membrane of nasal passages: Without changes (number of animals) [1, 9]: 3
NC(=O)c1ncn([C@@H]2O[C@H](CO)[C@@H](O)[C@H]2O)n1 [Ribavirin, reference compound]							Suppression of the reproduction of the virus in mouse lungs, Δ lg, Day 2 after infection [4]: 0.88 ± 0.5 Δ lg; Suppression of the reproduction of the virus in mouse lungs, Δ lg, Day 3 after infection [4]: 2.18 ± 0.26 Δ lg; Suppression of the reproduction of the virus in mouse lungs, Δ lg, Day 4 after infection [4]: 2 ± 0.16 Δ lg; Infectious titer of the virus in lungs, lg TCID50, Day 2 after infection ([4]; Hela cell culture): 3.13 ± 0.5 lg TCID50; Infectious titer of the virus in lungs, lg TCID50, Day 3 after infection ([4]; Hela cell culture): 0.33 ± 0.26 lg TCID50; Infectious titer of the virus in lungs, lg TCID50, Day 4 after infection ([4]; Hela cell culture): 0.2 ± 0.16 lg TCID50; Body weight of the mice after infection with hRV, day 0 ([4]; day 0): 7.66 ± 0.89; Body weight of the mice after infection with hRV, day 1 ([4]; day 1 after infection): 8.81 ± 5.94; Body weight of the mice after infection with hRV, day 2 ([4]; day 2 after infection): 13.87 ± 5.11; Lung weight of the mice after infection with hRV, day 2 ([4]; day 2 after infection): 152.6 ± 4.55; Body weight of the mice after infection with hRV, day 3 ([4]; day 3 after infection): 13.11 ± 1.37; Lung weight of the mice after infection with hRV, day 3 ([4]; day 3 after infection): 130.1 ± 5.4; Body weight of the mice after infection with hRV, day 4 ([4]; day 4 after infection): 13.37 ± 1.22; Lung weight of the mice after infection with hRV, day 4 ([4]; day 4 after infection): 120.5 ± 3.37
